Values of other authors in US20100120727A1, “Eflornithine Prodrugs, Conjugates and Salts, and Methods of Use Thereof” (Kyphia Pharmaceuticals, Inc., priority 2008, published 2010).
Read-outs that look alike come from different tables or passages of the source.

How the values were obtained:
MCA sarcoma = details: in vivo
tumor putrescine levels = details: DFMO infusion
[1] = not given; remark: listed apart in the source
[2] = not given; remark: listed apart in the source

NCCCC(N)(C(=O)O)C(F)F (racemic) [DFMO, 2-(Difluoromethyl)-DL-ornithine]
tumor growth rate and regression (MCA sarcoma): reduces the growth rate of an MCA sarcoma but does not produce tumor regression | decrease in tumor putrescine levels (tumor putrescine levels): 90%

CC(=O)Oc1ccccc1C(=O)O [Aspirin, acetylsalicylic acid]
solubility in water: very low solubility in water

CC1=C(CC(=O)O)c2cc(F)ccc2/C1=C\c1ccc(S(C)(=O)=O)cc1 [Sulindac sulfone]
COX-inhibitory activity (COX): lacks COX-inhibitory activity

CC1=C(CC(=O)O)c2cc(F)ccc2/C1=C\c1ccc([S+](C)[O-])cc1 (stereo not shown) [Sulindac, (Z)-5-Fluoro-2-methyl-1-((4 (methylsulfinyl)phenyl)methylene)1H-indene-3-acetic acid]
mild gastrointestinal effects, share of patients ([1]; abdominal pain and nausea most frequent): ~20% | skin rash and pruritus, share of patients ([1]; human, in vivo): 5% | time to peak plasma levels ([2]; administered with food): 3 to 4 h | fraction of the drug absorbed ([2]; after oral administration): about 90% | time to peak plasma levels ([2]; fasting patients): about 2 hours

CSc1ccc(/C=C2/C(C)=C(CC(=O)O)c3cc(F)ccc32)cc1 [sulfide metabolite]
mean half-life ([2]; in vivo): 16.4 h
